Reference: patent publication US20240309005A1 (priority 2021, published 2024)
Converted amounts (≈) assume the structure as drawn.

Key:
[1] = male, SD, in vivo
in vivo [2] = conditions: male, CD1, mouse
in vivo [3] = conditions: male, SD, rat; for bioavailability / Cmax: po, 30 mg/kg
physchem = conditions: 25 °C, kinetic from dmso stock
CYP1A2 = CYP1A2 (Homo sapiens (Human), UniProt P05177); experiment: in vitro; conditions: microsomes
CYP2B6 = CYP2B6 (Homo sapiens (Human), UniProt P20813); experiment: in vitro; conditions: microsomes
CYP2B6, sequence (P20813 whole entry): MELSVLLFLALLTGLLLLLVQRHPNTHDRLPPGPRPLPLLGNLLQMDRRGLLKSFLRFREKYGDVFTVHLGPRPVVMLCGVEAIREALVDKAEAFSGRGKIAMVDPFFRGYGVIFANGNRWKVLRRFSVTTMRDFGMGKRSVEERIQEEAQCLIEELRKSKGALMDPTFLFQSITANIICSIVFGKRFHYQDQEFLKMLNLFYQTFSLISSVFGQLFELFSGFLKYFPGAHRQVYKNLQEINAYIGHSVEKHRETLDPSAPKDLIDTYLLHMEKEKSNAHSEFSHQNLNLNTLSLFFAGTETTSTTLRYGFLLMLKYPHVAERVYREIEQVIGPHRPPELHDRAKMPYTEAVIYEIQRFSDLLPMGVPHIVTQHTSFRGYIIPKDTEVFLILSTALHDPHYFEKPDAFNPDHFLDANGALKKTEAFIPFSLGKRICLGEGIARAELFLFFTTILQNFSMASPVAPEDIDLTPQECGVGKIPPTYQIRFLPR

CYP2C9 = CYP2C9 (Homo sapiens (Human), UniProt P11712); experiment: in vitro; conditions: microsomes
CYP2C9, sequence (P11712 whole entry): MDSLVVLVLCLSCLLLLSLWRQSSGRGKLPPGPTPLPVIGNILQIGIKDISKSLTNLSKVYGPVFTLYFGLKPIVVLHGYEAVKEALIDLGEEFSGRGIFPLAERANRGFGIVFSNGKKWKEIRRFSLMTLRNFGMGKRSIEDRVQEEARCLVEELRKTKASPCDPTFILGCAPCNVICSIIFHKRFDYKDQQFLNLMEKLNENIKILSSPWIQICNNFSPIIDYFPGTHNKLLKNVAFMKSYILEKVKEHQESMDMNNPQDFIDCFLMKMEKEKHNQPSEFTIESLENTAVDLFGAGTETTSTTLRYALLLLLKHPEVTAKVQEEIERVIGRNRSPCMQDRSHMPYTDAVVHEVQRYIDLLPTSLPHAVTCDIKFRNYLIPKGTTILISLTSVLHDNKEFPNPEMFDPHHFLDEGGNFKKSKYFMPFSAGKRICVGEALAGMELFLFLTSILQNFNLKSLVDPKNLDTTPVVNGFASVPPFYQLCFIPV

CYP2D6 = CYP2D6 (Homo sapiens (Human), UniProt P10635); experiment: in vitro; conditions: microsomes
CYP2D6, sequence (P10635 whole entry): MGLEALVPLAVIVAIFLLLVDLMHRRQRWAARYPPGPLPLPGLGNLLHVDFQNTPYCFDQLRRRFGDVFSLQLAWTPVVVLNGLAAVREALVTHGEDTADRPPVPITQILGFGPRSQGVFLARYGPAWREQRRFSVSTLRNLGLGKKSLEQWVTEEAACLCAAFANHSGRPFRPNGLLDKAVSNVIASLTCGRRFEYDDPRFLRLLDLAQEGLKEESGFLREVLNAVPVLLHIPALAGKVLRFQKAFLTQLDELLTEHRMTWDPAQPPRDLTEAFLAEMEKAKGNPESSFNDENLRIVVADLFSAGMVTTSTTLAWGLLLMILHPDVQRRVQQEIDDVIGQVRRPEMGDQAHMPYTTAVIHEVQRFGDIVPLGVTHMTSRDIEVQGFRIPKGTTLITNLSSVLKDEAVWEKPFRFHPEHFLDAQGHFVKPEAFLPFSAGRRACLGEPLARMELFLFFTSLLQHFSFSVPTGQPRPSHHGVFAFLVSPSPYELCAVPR

CYP3A4 = experiment: in vitro; conditions: human, microsomes

CYP1A2, sequence (P05177 whole entry): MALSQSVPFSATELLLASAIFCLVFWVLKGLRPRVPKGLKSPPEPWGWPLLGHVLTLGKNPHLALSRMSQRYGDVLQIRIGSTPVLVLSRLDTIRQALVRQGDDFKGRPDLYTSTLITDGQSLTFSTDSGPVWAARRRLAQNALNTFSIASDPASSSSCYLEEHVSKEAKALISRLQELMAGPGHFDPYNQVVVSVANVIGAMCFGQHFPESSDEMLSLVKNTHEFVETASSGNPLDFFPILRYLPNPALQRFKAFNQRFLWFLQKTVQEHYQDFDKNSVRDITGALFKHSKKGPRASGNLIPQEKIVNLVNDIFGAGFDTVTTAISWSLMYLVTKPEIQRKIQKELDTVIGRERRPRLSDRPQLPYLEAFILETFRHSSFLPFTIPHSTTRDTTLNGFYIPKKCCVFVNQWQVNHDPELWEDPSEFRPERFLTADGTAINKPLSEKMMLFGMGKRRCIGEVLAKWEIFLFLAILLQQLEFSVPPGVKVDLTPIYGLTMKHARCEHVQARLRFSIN

| SMILES | pK Data in Rat: F [1] | hERG/IC50 (hERG / SGK1 (whole cell)) | half-life (in vivo [2]) [h] | Cmax (in vivo [2]; po, 30 mg/kg) [ng/mL] | bioavailability (in vivo [2]; po, 30 mg/kg) [%] | half-life (in vivo [3]) [h] | bioavailability (in vivo [3]) [%] | Cmax (in vivo [3]; Cmax (ng/ml)) [ng/mL] | Cmax (in vivo [3]; pK Data in Rat: Cmax) [ng/mL] | solubility at 2 h (physchem; pH 5, fessif) [µM] | solubility at 2 h (physchem; pH 7.4, aqueous buffer) [µM] | inhibition at 20 min, 10 µM (CYP1A2) [%] | inhibition at 20 min, 10 µM (CYP2B6) [%] | inhibition at 20 min, 10 µM (CYP2C9) [%] | inhibition at 20 min, 10 µM (CYP2D6) [%] | inhibition at 5 min, 10 µM (CYP3A4) [%] | inhibition at 10 min, 10 µM (CYP3A4) [%] |
| --- | --- | --- | --- | --- | --- | --- | --- | --- | --- | --- | --- | --- | --- | --- | --- | --- | --- |
| Cc1n[nH]c2nc(-c3ccc(NS(=O)(=O)c4cc(F)ccc4F)c(F)c3)nc(NCCN(C)C)c12 [Compound 84, N-[4-(4-[[2-(dimethylamino)ethyl]amino]-3-methyl-1H-pyrazolo[3,4-d]pyrimidin-6-yl)-2-fluorophenyl]-2,5-difluorobenzenesulfonamide] | Cmax = 2470 ng/mL F = 17.9% | 177 | 2.3 | 621 | 22 | 3.15 | 17.9 | 2470 | 2470 | 297 (≈ 150 µg/mL) | 3.38 (≈ 1.71 µg/mL) | -0.9 | 1.2 | 2.2 | 0 | 0.5 | 3 |
| Cc1n[nH]c2nc(-c3ccc(NS(=O)(=O)c4cc(F)ccc4F)c(Cl)c3)nc(NCCN(C)C)c12 [Compound 85, N-(2-chloro-4-(4-((2-(dimethylamino)ethyl)amino)-3-methyl-1H-pyrazolo[3,4-d]pyrimidin-6-yl)phenyl)-2,5-difluorobenzenesulfonamide] | Cmax = 2747 ng/mL F = 92% | 82 | – | – | – | 3.6 | 92 | 2750 | 2750 | 315 (≈ 164 µg/mL) | 4.5 (≈ 2.35 µg/mL) | -0.7 | 7.7 | 9.4 | 1.8 | 19 | -2.9 |
